# Data from patent publication US11918626B2, “Vasointestinal peptide receptor inhibitors for enhancement of gastrointestinal health” (New York University, priority 2019, dated 2024).
# T1: VIPR2 (Mus musculus, UniProt P41588)
# T1 construct: endogenous in cells; host or cells: primary CCR6+ ILC3 sorted from small-intestine lamina propria of C57BL/6 mice
# T1 sequence (P41588 23-437): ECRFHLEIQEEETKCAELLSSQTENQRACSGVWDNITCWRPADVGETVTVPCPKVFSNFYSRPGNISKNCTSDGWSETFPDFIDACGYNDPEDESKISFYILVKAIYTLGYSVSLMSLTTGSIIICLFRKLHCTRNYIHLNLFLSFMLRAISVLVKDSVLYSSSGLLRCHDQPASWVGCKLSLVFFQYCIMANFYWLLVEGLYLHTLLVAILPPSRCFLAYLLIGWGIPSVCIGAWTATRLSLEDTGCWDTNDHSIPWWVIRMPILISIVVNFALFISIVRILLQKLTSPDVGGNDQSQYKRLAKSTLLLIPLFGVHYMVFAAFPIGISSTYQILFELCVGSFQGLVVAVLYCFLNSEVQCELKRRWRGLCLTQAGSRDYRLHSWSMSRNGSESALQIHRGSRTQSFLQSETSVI
# T2: hM4Di (Homo sapiens, UniProt P08173, A203G/Y113C)
# T2 construct: host or cells: VIP-producing enteric neurons of Vip-IRES-Cre x hM4Di fl-stop-fl transgenic mice (in vivo)
# T2 sequence (P08173 1-479 Y113C/A203G): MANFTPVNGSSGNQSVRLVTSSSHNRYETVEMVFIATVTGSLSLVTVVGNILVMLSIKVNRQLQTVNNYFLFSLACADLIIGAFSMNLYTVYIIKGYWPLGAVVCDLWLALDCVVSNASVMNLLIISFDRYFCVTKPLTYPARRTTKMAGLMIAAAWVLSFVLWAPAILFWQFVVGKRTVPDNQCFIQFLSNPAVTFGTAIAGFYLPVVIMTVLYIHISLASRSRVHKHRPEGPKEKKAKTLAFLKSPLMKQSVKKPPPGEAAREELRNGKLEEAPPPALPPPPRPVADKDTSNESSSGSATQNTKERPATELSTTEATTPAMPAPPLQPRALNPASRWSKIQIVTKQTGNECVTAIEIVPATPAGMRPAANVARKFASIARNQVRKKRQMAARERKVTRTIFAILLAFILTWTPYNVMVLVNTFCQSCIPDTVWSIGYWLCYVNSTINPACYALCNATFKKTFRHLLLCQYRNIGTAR
# B1: rmIL-22: recombinant murine IL-22 (protein, UniProt Q9JJY9 34-179, looked up)
# Interleukin-22: LPVNTRCKLEVSNFQQPYIVNRTFMLAKEASLADNNTDVRLIGEKLFRGVSAKDQCYLMKQVLNFTLEDVLLPQSDRFQPYMQEVVPFLTKLSNQLSSCHISGDDQNIQKNVRRLKETVKKLGESGEIKAIGELDLLFMSLRNACV
# Experiments:
# VIPR2 = biological target: T1, VIPR2; assay: ILC3 in vitro cell culture with VIPR2 ligands, IL-22 and Sca-1 by flow cytometry; format: cell-based, mice; conditions: IL-23 100 pg/mL, 12 h, different concentrations of ligand
# Protocol: CCR6^+ and CCR6^neg ILC3 (DAPI^negCD3^negCD11c^negCD14^negCD19^negTCRβ^negTCRγ^negNK1.19KLRG1^negCD127^+CD90.2^+) were isolated from small intestine LPLs of C57BL/6 mice using the ARIA II FACS Sorter (BD Biosciences). ILC3 were cultured at 37° C. in flat bottom 96 well plates (10^4 cells/well) in RPMI supplemented with 10% heat-inactivated FBS (Hyclone), 50 U penicillin-streptomycin (Hyclone), 2 mM glutamine (Hyclone), 10 mM HEPES (Hyclone), 1 mM sodium pyruvate (Hyclone) and 50 μM β-mercaptoethanol (Gibco). ILC3 were stimulated with IL-23 (100 pg/mL, R&D systems) and/or VIPR2 ligands (BAY-559837: 1-100 nM, and VIP: 1 nM, […]), washed, incubated in complete media in the presence of Golgi Plug (BD Bioscience) for 4 h (37° C.), and stained for membrane extracellular markers in Staining Buffer (PBS FBS2% EDTA 5 mM) and for intracellular markers using Cytofix/Cytoperm buffer set following manufacturer's protocol (BD Biosciences). Acquisition of cytometric parameters was performed on an LSRII (BD Biosciences). All data were analyzed using FlowJo Software Version 10 (Tree Star).
# (§1) Live/dead fixable blue (ThermoFisher) or DAPI (ThermoFisher) were used to exclude dead cells. […] Flow cytometric analysis was performed on an LSR II (BD Biosciences) or an Aria II (BD Biosciences) and analyzed using FlowJo software version 10 (Tree Star).
# hM4Di = biological target: T2, hM4Di; assay: VIPen inhibition with inhibitory DREADD (hM4Di), 24 h; format: in vivo, mice; conditions: versus vehicle
# Protocol: (§2) To perform chemogenetic activation or inhibition of VIPen, we bred VIP^IRES-Cre homozygous mice to hM3Dq^fl-stop-fl mice (DREADD for activation) or hM4Di^fl-stop-fl bp-mice (DREADD for inhibition), generating VIP^IRES-Cre hM3Dq^fl-stop-fl (VIPen activation) and VIP^IRES-Cre hM3Dq^fl-stop-flhM4Di^fl-stop-fl mice (VIPen inhibition). To perform 24 h activation of the DREADDs, mice were treated with Clozapine-N-Oxide (CNO, 1 mg/Kg intraperitoneally, TOCRIS) each 12 h. […] To perform activation of the DREADDs during Citrobacter rodentium infection, mice were treated daily with CNO (1 mg/Kg, intraperitoneally) from day 1 to day 4 after infection. […]
# as §1
# (§3) TRNA isolation of ileal epithelial cells was performed using TRIzol following manufacturer's instructions (Invitrogen) followed by DNase I (Qiagen) treatment and cleanup with RNeasy MinElute kit (Qiagen) following manufacturer protocols. cDNA was generated using SuperScript™ IV First-Strand Synthesis System (ThermoFisher). […] Quantitative PCR was performed using the Hot Start-IT SYBRGreen (Affymetrix) on the Roche real-time PCR system (Roche 480). […]
# ILC3 = assay: Pilot experiments with CNO in C57BL/6 mice; format: in vivo; conditions: 1 mg/Kg intraperitoneally each 12 h, C57BL/6 mice without DREADD, data not shown
# hM3Dq = biological target: T3, hM3Dq (Homo sapiens, UniProt P20309, A239G/Y149C); assay: VIPen activation with activating DREADD (hM3Dq), 24 h; format: in vivo, mice; conditions: following VIPen activation, versus vehicle
# T3 construct: host or cells: VIP-producing enteric neurons of Vip-IRES-Cre x hM3Dq fl-stop-fl transgenic mice (in vivo)
# Protocol: as §2, §1, §3
# C. rodentium [1] = assay: C. rodentium infection of Vip-IRES-Cre hM3Dq mice (VIPen activation); format: in vivo, Citrobacter rodentium; conditions: for bacterial dissemination (translocation) induced by VIPen activation / mortality induced by VIPen activation: 250 pg/mouse/day, C. rodentium-infected hM3Dq mice with VIPen activation
# Protocol: (§4) To perform chemogenetic activation or inhibition of VIPen, we bred VIP^IRES-Cre homozygous mice to hM3Dq^fl-stop-fl mice (DREADD for activation) or hM4Di^fl-stop-fl bp-mice (DREADD for inhibition), generating VIP^IRES-Cre hM3Dq^fl-stop-fl (VIPen activation) and VIP^IRES-Cre hM3Dq^fl-stop-flhM4Di^fl-stop-fl mice (VIPen inhibition). To perform 24 h activation of the DREADDs, mice were treated with Clozapine-N-Oxide (CNO, 1 mg/Kg intraperitoneally, TOCRIS) each 12 h. […] To perform activation of the DREADDs during Citrobacter rodentium infection, mice were treated daily with CNO (1 mg/Kg, intraperitoneally) from day 1 to day 4 after infection.
# (§5) C. rodentium strain DBS100 (ATCC51459; American Type Culture Collection) was grown at 37° C. in LB broth to OD600 reading between 0.5 and 0.7. VIP^IRES-CrehM3Dq^fl-stop-fl (VIPen activation) and C57BL/6 mice were inoculated with 200 μl of a bacterial suspension (2×10^9 CFU) by oral gavage. VIP^IRES-Cre hM3Dq^fl-stop-flhM4Di^fl-stop-fl mice (VIPen inhibition) were inoculated with 200 μl of a bacterial suspension (4×10^10 CFU) by oral gavage. For DREADD experiments, CNO treatment started at 1 day post-infection (d.p.i.) until 4 d.p.i. Mice were followed the next 12 days post-infection (d.p.i.) to measure survival rate. At 9 d.p.i. fecal pellets were collected and the mice dissected to harvest spleen and liver. Samples were weighted and minced on sterile deionized water with Triton 0.1% and filtered on a 70 μm cell strainer. The filtered samples were used to measure C. rodentium burden with serial dilutions (triplicates) on MacConkey agar plates.
# C. rodentium [2] = assay: C. rodentium infection of Vip-IRES-Cre hM4Di mice (VIPen inhibition); format: in vivo, Citrobacter rodentium; conditions: 1 mg/Kg daily 1-4 d.p.i., 4×10^10 CFU, 9 d.p.i., mice positive/total
# Protocol: as §4
# as §5, with “Samples were weighted and minced on sterile deionized water with Triton 0.1% and filtered on a 70 μm cell strainer. The filtered samples were used to measure C. rodentium burden with serial dilutions (triplicates) on MacConkey agar plates.” left out
# [3] = 1 mg/Kg daily 1-4 d.p.i., 2×10^9 CFU, 9 d.p.i., mice positive/total
# [4] = listed as recombinant murine IL-22
# T3 sequence (P20309 whole entry Y149C/A239G): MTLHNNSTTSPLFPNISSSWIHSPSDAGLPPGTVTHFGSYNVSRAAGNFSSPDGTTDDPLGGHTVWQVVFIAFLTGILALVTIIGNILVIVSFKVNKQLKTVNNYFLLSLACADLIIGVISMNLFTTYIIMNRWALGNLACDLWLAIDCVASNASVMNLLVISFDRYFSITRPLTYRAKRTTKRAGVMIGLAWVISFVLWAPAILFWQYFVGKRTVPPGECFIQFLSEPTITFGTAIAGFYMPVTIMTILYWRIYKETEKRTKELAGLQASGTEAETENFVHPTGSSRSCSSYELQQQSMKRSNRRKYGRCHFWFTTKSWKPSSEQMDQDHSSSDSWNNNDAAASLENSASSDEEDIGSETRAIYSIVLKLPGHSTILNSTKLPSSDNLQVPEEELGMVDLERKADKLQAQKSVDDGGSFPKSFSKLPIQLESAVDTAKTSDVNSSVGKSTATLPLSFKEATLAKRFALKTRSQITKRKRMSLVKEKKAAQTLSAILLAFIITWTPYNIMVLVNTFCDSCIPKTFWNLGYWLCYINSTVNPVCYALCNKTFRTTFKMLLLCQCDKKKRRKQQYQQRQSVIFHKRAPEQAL
molecule,measurement,setting,value
vasoactive intestinal peptide [VIP],IL-23-induced Sca-1 expression on CCR6+ ILC3,VIPR2,does not modulate
"C[N+]1([O-])CCN(C2=Nc3cc(Cl)ccc3Nc3ccccc32)CC1 [CNO, Clozapine-N-oxide]",RegIIIγ mRNA expression in the IECs,"hM4Di; after VIPen inhibition, 24 h",increased
same,frequency of IL-22-producing CCR6+ ILC3,"hM4Di; ileum, 24 h following VIPen inhibition",higher frequency
same,ILC3 function,ILC3,does not affect
same,IL-22+ cells among the CCR6+ ILC3,hM3Dq,fewer
same,RegIIIγ mRNA in IECs,hM3Dq,lower
same,Positive for C. rodentium: liver,C. rodentium [1]; [3],9/9
same,Positive for C. rodentium: spleen,C. rodentium [1]; [3],9/9
same,Positive for C. rodentium: liver,C. rodentium [2],1/7
same,Positive for C. rodentium: spleen,C. rodentium [2],1/7
B1,bacterial dissemination (translocation) induced by VIPen activation,C. rodentium [1],protects against increase
same,mortality induced by VIPen activation,C. rodentium [1],protects against increase
same,bacterial dissemination (translocation) induced by VIPen activation,C. rodentium [1]; [4],reversed the effect
same,mortality induced by VIPen activation,C. rodentium [1]; [4],reversed the effect
